The record followed here is ChEMBL document CHEMBL4354781, “Drug-resistance in Mycobacterium tuberculosis: where we stand” (2019).

What is called MIC is the smallest concentration in the dilution series that meets the test's criterion for growth inhibition.

Holding throughout (assay type): functional
The test system of test [1] is Mycobacterium tuberculosis. In words: Antitubercular activity against resistant Mycobacterium tuberculosis harboring rrs A1401G mutant after 3 to 6 weeks.
For test [2], the system named is Mycobacterium tuberculosis. In words: Antitubercular activity against resistant Mycobacterium tuberculosis harboring rrs A1401G mutant.
The test system of test [3] is Mycobacterium tuberculosis. In words: Antitubercular activity against resistant Mycobacterium tuberculosis harboring embCAB Met306IIe/Val mutant.
Test [4] concerns Mycobacterium tuberculosis. In words: Antitubercular activity against resistant Mycobacterium tuberculosis harboring embCAB Gly406Asp/Ala mutant.
Test [5] relates to Mycobacterium tuberculosis. In words: Antitubercular activity against resistant Mycobacterium tuberculosis Bangladesh isolate harboring katG Ser315Thr mutant.
Test [6] concerns Mycobacterium tuberculosis. In words: Antitubercular activity against resistant Mycobacterium tuberculosis TDR harboring katG Ser315Thr mutant.
For test [7], the system named is Mycobacterium tuberculosis. In words: Antitubercular activity against resistant Mycobacterium tuberculosis TDR harboring inhA Promoter (c-15 t)/IIe21Thr mutant.
In test [8] the test system is Mycobacterium tuberculosis. In words: Antitubercular activity against resistant Mycobacterium tuberculosis TDR harboring inhA Promoter (c-15 t)/Ser94Ala mutant.
In test [9] the test system is Mycobacterium tuberculosis. In words: Antitubercular activity against resistant Mycobacterium tuberculosis TDR harboring inhA Promoter (c-15 t) mutant.
Test [10] has as its system Mycobacterium tuberculosis. In words: Antitubercular activity against resistant Mycobacterium tuberculosis Bangladesh isolate harboring inhA Promoter (c-15 t)/Ser94Ala mutant.
The subject of test [11] is Mycobacterium tuberculosis. In words: Antitubercular activity against resistant Mycobacterium tuberculosis Bangladesh isolate harboring inhA Promoter (c-15 t).
Test [12] concerns Mycobacterium tuberculosis. In words: Antitubercular activity against resistant Mycobacterium tuberculosis Bangladesh isolate harboring inhA Promoter (c-15 t)/IIe21Thr mutant.
Test [13] deals with Mycobacterium tuberculosis. In words: Antitubercular activity against resistant Mycobacterium tuberculosis harboring rrs C1402T mutant after 3 to 6 weeks.
For test [14], the system named is Mycobacterium tuberculosis. In words: Antitubercular activity against resistant Mycobacterium tuberculosis harboring rrs G37T mutant after 3 to 6 weeks.
Test [15] concerns Mycobacterium tuberculosis. In words: Antitubercular activity against resistant Mycobacterium tuberculosis harboring rrs G1484T/C-12T mutant after 3 to 6 weeks.
The test system of test [16] is Mycobacterium tuberculosis. In words: Antitubercular activity against resistant Mycobacterium tuberculosis harboring gyrB Ala90Val mutant incubated for 28 days by absolute concentration method.
The test system of test [17] is Mycobacterium tuberculosis. In words: Antitubercular activity against resistant Mycobacterium tuberculosis harboring gyrA Asp94Gly mutant incubated for 28 days by absolute concentration method.
For test [18], the system named is Mycobacterium tuberculosis. In words: Antitubercular activity against resistant Mycobacterium tuberculosis harboring gyrA Asp94Asn mutant incubated for 28 days by absolute concentration method.
Test [19] deals with Mycobacterium tuberculosis. In words: Antitubercular activity against resistant Mycobacterium tuberculosis harboring gyrA Asp94Tyr mutant incubated for 28 days by absolute concentration method.
Test [20] concerns Mycobacterium tuberculosis. In words: Antitubercular activity against resistant Mycobacterium tuberculosis harboring gyrB T511N mutant incubated for 28 days by absolute concentration method.
Test [21] has as its system Mycobacterium tuberculosis. In words: Antitubercular activity against resistant Mycobacterium tuberculosis harboring gyrA Asp94His mutant incubated for 28 days by absolute concentration method.
Test [22] relates to Mycobacterium tuberculosis. In words: Antitubercular activity against resistant Mycobacterium tuberculosis harboring rplC Cys154Arg mutant.
Test [23] relates to Mycobacterium tuberculosis. In words: Antitubercular activity against multidrug resistant Mycobacterium tuberculosis.
Test [24] deals with Mycobacterium tuberculosis. In words: Antitubercular activity against resistant Mycobacterium tuberculosis harboring pncA D8N mutant incubated for 3 weeks.
Test [25] deals with Mycobacterium tuberculosis. In words: Antitubercular activity against resistant Mycobacterium tuberculosis harboring pncA Cys138S mutant incubated for 3 weeks.
Test [26] concerns Mycobacterium tuberculosis. In words: Antitubercular activity against resistant Mycobacterium tuberculosis 6 harboring rpoB Ser531Leu mutant after 4 weeks by absolute concentration-microtiter method.
The subject of test [27] is Mycobacterium tuberculosis. In words: Antitubercular activity against resistant Mycobacterium tuberculosis 75 harboring rpoB Ser531Leu mutant after 4 weeks by absolute concentration-microtiter method.
Test [28] deals with Mycobacterium tuberculosis. In words: Antitubercular activity against resistant Mycobacterium tuberculosis 73 harboring rpoB His526Tyr mutant by absolute concentration-microtiter method.
Test [29] deals with Mycobacterium tuberculosis. In words: Antitubercular activity against resistant Mycobacterium tuberculosis 1 harboring rpoB Ser531Leu mutant after 4 weeks by absolute concentration-microtiter method.
The test system of test [30] is Mycobacterium tuberculosis. In words: Antitubercular activity against resistant Mycobacterium tuberculosis 26 harboring rpoB Ser531Leu mutant after 4 weeks by absolute concentration-microtiter method.
The subject of test [31] is Mycobacterium tuberculosis. In words: Antitubercular activity against resistant Mycobacterium tuberculosis 4 harboring rpoB Ser531Leu mutant after 4 weeks by absolute concentration-microtiter method.
Test [32] has as its system Mycobacterium tuberculosis. In words: Antitubercular activity against resistant Mycobacterium tuberculosis 74 harboring rpoB His526Tyr mutant by absolute concentration-microtiter method.
In test [33] the test system is Mycobacterium tuberculosis. In words: Antitubercular activity against resistant Mycobacterium tuberculosis 23 harboring rpoB His526Asp mutant by absolute concentration-microtiter method.
Test [34] has as its system Mycobacterium tuberculosis. In words: Antitubercular activity against resistant Mycobacterium tuberculosis 7 harboring rpoB His526Tyr mutant by absolute concentration-microtiter method.
In test [35] the test system is Mycobacterium tuberculosis. In words: Antitubercular activity against resistant Mycobacterium tuberculosis 5 harboring rpoB His526Tyr mutant by absolute concentration-microtiter method.
In test [36] the test system is Mycobacterium tuberculosis. In words: Antitubercular activity against resistant Mycobacterium tuberculosis 8 harboring rpoB His526Pro mutant by absolute concentration-microtiter method.
The subject of test [37] is Mycobacterium tuberculosis. In words: Antitubercular activity against resistant Mycobacterium tuberculosis 3 harboring rpoB Ser531Leu mutant after 4 weeks by absolute concentration-microtiter method.
Test [38] deals with Mycobacterium tuberculosis. In words: Antitubercular activity against resistant Mycobacterium tuberculosis 76 harboring rpoB Ser531Leu mutant after 4 weeks by absolute concentration-microtiter method.
Test [39] has as its system Mycobacterium tuberculosis. In words: Antitubercular activity against resistant Mycobacterium tuberculosis 21 harboring rpoB Ser531Leu mutant after 4 weeks by absolute concentration-microtiter method.
Test [40] has as its system Mycobacterium tuberculosis. In words: Antitubercular activity against resistant Mycobacterium tuberculosis 2 harboring rpoB Ser531Leu mutant after 4 weeks by absolute concentration-microtiter method.
For test [41], the system named is Mycobacterium tuberculosis. In words: Antitubercular activity against resistant Mycobacterium tuberculosis 72 harboring rpoB His526Asp mutant by absolute concentration-microtiter method.

Values after ≈ are worked out from the molar mass of the structure shown. Numbered stars: 1 amine (or outer) side, 2 acyl side, 3 side chain; on linkers, the order of the positions; unused ones are H or OH. Bridge positions count the residues as written; N and C are the ends. Square brackets hold non-standard residues; d marks the D form. Peptide text beside a SMILES is read from it. * marks the point of attachment. X1 = N=C1NCC[C@H]([C@H](N[*:1])C(=O)[*:2])N1; ΔAla(Z-3-ureido) = NC(=O)N/C=C(\N)C(=O)O; β3hOrn = NCCC[C@H](N)CC(=O)*; Dap = NC[C@H](N)C(=O)O

The molecule `N=C1NCC[C@H]([C@@H]2NC(=O)/C(=C/NC(N)=O)NC(=O)[C@H](CNC(=O)C[C@@H](N)CCCN)NC(=O)[C@H](CO)NC(=O)[C@@H](N)CNC2=O)N1` (H-[Dap]S[Dap](β3hOrn)[ΔAla(Z-3-ureido)][X1]; lactam 1-C) gave a minimum inhibitory concentration (MIC) in test [1] of more than 2.5 mg/L.
The molecule `NCC[C@H](O)C(=O)N[C@@H]1C[C@H](N)[C@@H](O[C@H]2O[C@H](CN)[C@@H](O)[C@H](O)[C@H]2O)[C@H](O)[C@H]1O[C@H]1O[C@H](CO)[C@@H](O)[C@H](N)[C@H]1O` [AMIKACIN] registered an MIC in test [2] of 4 mg/L (≈ 6.83 µM).
On to `CC[C@@H](CO)NCCN[C@@H](CC)CO` [ETHAMBUTOL], for which the MIC in test [3] and in test [4] was 10 to 50 mg/L throughout.
As for `NNC(=O)c1ccncc1` [ISONIAZID], the MIC in [5] is more than 19.2 mg/L; in [6], more than 19.2 mg/L; in [7], 3.2 to 12.8 mg/L; in test [8], 3.2 to 12.8 mg/L; in test [9], 0.16 to 0.8 mg/L; in test [10], 3.2 to 12.8 mg/L. Also, the results for the minimal inhibitory concentration (MIC) in test [11] and in test [12] were 0.16 to 0.8 mg/L (≈ 1.17 to 5.83 µM) and 3.2 to 12.8 mg/L, respectively.
As for `NC[C@H]1O[C@H](O[C@H]2[C@H](O)[C@@H](O[C@H]3O[C@H](CO)[C@@H](O)[C@H](N)[C@H]3O)[C@H](N)C[C@@H]2N)[C@H](O)[C@@H](O)[C@@H]1O` [KANAMYCIN], the minimum inhibitory concentration (MIC) in [13], in test [14], in [1] and in test [15] was more than 2.5 mg/L in each case.
As for `C[C@H]1COc2c(N3CCN(C)CC3)c(F)cc3c(=O)c(C(=O)O)cn1c23.C[C@H]1COc2c(N3CCN(C)CC3)c(F)cc3c(=O)c(C(=O)O)cn1c23.O` [LEVOFLOXACIN], the MIC in test [16] was more than 1 mg/L; in test [17] it was more than 10 mg/L; in test [18], more than 10 mg/L; in test [19] it was more than 10 mg/L; in test [20], more than 1 mg/L; in test [21], more than 10 mg/L.
Consider `CC(=O)NC[C@H]1CN(c2ccc(N3CCOCC3)c(F)c2)C(=O)O1` [LINEZOLID], for which the MIC in test [22] was more than 1 mg/L; in test [23], 0.125 to 0.5 mg/L (≈ 0.371 to 1.48 µM).
As for `NC(=O)c1cnccn1` [PYRAZINAMIDE], the minimal inhibitory concentration (MIC) result in [24] and in test [25] was “>=400 - 800 ug ml-1” throughout.
As to `CO[C@H]1/C=C/O[C@@]2(C)Oc3c(C)c(O)c4c(O)c(c(/C=N/N5CCN(C)CC5)c(O)c4c3C2=O)NC(=O)/C(C)=C\C=C\[C@H](C)[C@H](O)[C@@H](C)[C@@H](O)[C@@H](C)[C@H](OC(C)=O)[C@@H]1C` [RIFAMPIN], the MIC entry in test [26], in test [27], in [28], in test [29], in test [30] and in test [31] was “>=2 - 200 ug ml-1” in each case. The minimum inhibitory concentration (MIC) result in test [32], in test [33], in test [34], in test [35], in test [36] and in test [37] was “>=2 - 200 ug ml-1” each time. Besides, the MIC result in [38], in test [39], in test [40] and in [41] was “>=2 - 200 ug ml-1” each time.
